Laboratory results from ChEMBL document CHEMBL2040726, “The effects of aminoguanidine on retinopathy in STZ-induced diabetic rats” (Bioorg Med Chem Lett, 2012).
Activity calls are given as the source filed them. The calls are words filed in the database; no cut-off is given here.

Experiments:
Rattus norvegicus [1] = test: Antiretinopathic activity in Sprague-Dawley rat streptozotocin-induced diabetic model assessed as reduction of retinal advanced glycated end products positive area at 50 mg/kg/day administered with drinking water after 3 months by immunohistochemistry analysis (reference value: 69.20 +/- 10.75%); assay type: functional; set-up: scale not given: the % may be the effect or the level left
Rattus norvegicus [2] = test: Antiretinopathic activity in Sprague-Dawley rat streptozotocin-induced diabetic model assessed as increase of retinal electron density of basement membrane at 50 mg/kg/day administered with drinking water after 6 months by transmission electron microscopic analysis; assay type: functional, organism-based
Rattus norvegicus [3] = test: Antiretinopathic activity in Sprague-Dawley rat streptozotocin-induced diabetic model assessed as swollen of retinal pericyte mitochondria and endothelial cells at 50 mg/kg/day administered with drinking water after 6 months by transmission electron microscopic analysis; assay type: functional, organism-based; conditions: Endothelial cell
Rattus norvegicus [4] = test: Toxicity in normal Sprague-Dawley rat assessed as effect on retinal pericyte cell count at 50 mg/kg/day administered with drinking water after 6 months by hematoxylin and eosin staining; assay type: organism-based; conditions: in vivo
Rattus norvegicus [5] = test: Antiretinopathic activity in Sprague-Dawley rat streptozotocin-induced diabetic model assessed as ratio of retinal endothelial cell count to pericyte cell count at 50 mg/kg/day administered with drinking water after 3 months by hematoxylin and eosin staining (reference value: 3.25 +/- 0.27); assay type: functional
Rattus norvegicus [6] = test: Toxicity in normal Sprague-Dawley rat assessed as effect on ratio of retinal endothelial cell count to pericyte cell count at 50 mg/kg/day administered with drinking water after 6 months by hematoxylin and eosin staining (reference value: 3.58 +/- 0.61); assay type: organism-based; conditions: in vivo
Rattus norvegicus [7] = test: Toxicity in normal Sprague-Dawley rat assessed as effect on ratio of retinal endothelial cell count to pericyte cell count at 50 mg/kg/day administered with drinking water after 3 months by hematoxylin and eosin staining (reference value: 2.89 +/- 0.76); assay type: organism-based; conditions: in vivo
Rattus norvegicus [8] = test: Effect on fasting blood glucose level in normal Sprague-Dawley rat 50 mg/kg/day administered with drinking water after 3 months (reference value: 5.68 +/- 0.96 mmol/L); assay type: functional
Rattus norvegicus [9] = test: Antidiabetic activity in Sprague-Dawley rat streptozotocin-induced diabetic model assessed as reduction of body weight at 50 mg/kg/day administered with drinking water after 6 months (reference value: 254.50 +/- 123.03 g); assay type: functional
Rattus norvegicus [10] = test: Toxicity in normal Sprague-Dawley rat assessed as retinal advanced glycated end products positive area at 50 mg/kg/day administered with drinking water after 3 months by immunohistochemistry analysis (reference value: 0.64 +/- 0.87%); assay type: organism-based; conditions: in vivo
Rattus norvegicus [11] = test: Antiretinopathic activity in Sprague-Dawley rat streptozotocin-induced diabetic model assessed as effect on retinal pericyte cell count at 50 mg/kg/day administered with drinking water after 3 months by hematoxylin and eosin staining; assay type: functional, organism-based
Rattus norvegicus [12] = test: Toxicity in normal Sprague-Dawley rat assessed as reduction of body weight at 50 mg/kg/day administered with drinking water after 3 months (reference value: 561.00 +/- 32.04 g); assay type: organism-based; conditions: in vivo
Rattus norvegicus [13] = test: Antiretinopathic activity in Sprague-Dawley rat streptozotocin-induced diabetic model assessed as effect on retinal endothelial cell count at 50 mg/kg/day administered with drinking water after 6 months by hematoxylin and eosin staining; assay type: functional, organism-based
Rattus norvegicus [14] = test: Toxicity in normal Sprague-Dawley rat assessed as effect on retinal endothelial cell count at 50 mg/kg/day administered with drinking water after 3 months by hematoxylin and eosin staining; assay type: organism-based; conditions: in vivo
Rattus norvegicus [15] = test: Antidiabetic activity in Sprague-Dawley rat streptozotocin-induced diabetic model assessed as reduction of body weight at 50 mg/kg/day administered with drinking water after 3 months (reference value: 206.00 +/- 52.59 g); assay type: functional
Rattus norvegicus [16] = test: Toxicity in normal Sprague-Dawley rat assessed as reduction of body weight at 50 mg/kg/day administered with drinking water after 6 months (reference value: 547.50 +/- 36.23 g); assay type: organism-based; conditions: in vivo
Rattus norvegicus [17] = test: Antiretinopathic activity in Sprague-Dawley rat streptozotocin-induced diabetic model assessed as effect on retinal endothelial cell count at 50 mg/kg/day administered with drinking water after 3 months by hematoxylin and eosin staining; assay type: functional, organism-based
Rattus norvegicus [18] = test: Antiretinopathic activity in Sprague-Dawley rat streptozotocin-induced diabetic model assessed as ratio of retinal endothelial cell count to pericyte cell count at 50 mg/kg/day administered with drinking water after 6 months by hematoxylin and eosin staining (reference value: 10.91 +/- 3.34); assay type: functional
Rattus norvegicus [19] = test: Antidiabetic activity in Sprague-Dawley rat streptozotocin-induced diabetic model assessed as reduction of fasting blood glucose level at 50 mg/kg/day administered with drinking water after 6 months (reference value: 20.20 +/- 5.51 mmol/L); assay type: functional
Rattus norvegicus [20] = test: Antidiabetic activity in Sprague-Dawley rat streptozotocin-induced diabetic model assessed as reduction of fasting blood glucose level at 50 mg/kg/day administered with drinking water after 3 months (reference value: 20.99 +/- 4.13 mmol/L); assay type: functional
Rattus norvegicus [21] = test: Toxicity in normal Sprague-Dawley rat assessed as retinal advanced glycated end products positive area at 50 mg/kg/day administered with drinking water after 6 months by immunohistochemistry analysis (reference value: 0.75 +/- 0.94%); assay type: organism-based; conditions: in vivo
Rattus norvegicus [22] = test: Toxicity in normal Sprague-Dawley rat assessed as effect on retinal endothelial cell count at 50 mg/kg/day administered with drinking water after 6 months by hematoxylin and eosin staining; assay type: organism-based; conditions: in vivo
Rattus norvegicus [23] = test: Effect on fasting blood glucose level in normal Sprague-Dawley rat 50 mg/kg/day administered with drinking water after 6 months (reference value: 5.51 +/- 1.06 mmol/L); assay type: functional
Rattus norvegicus [24] = test: Antiretinopathic activity in Sprague-Dawley rat streptozotocin-induced diabetic model assessed as effect on retinal pericyte cell count at 50 mg/kg/day administered with drinking water after 6 months by hematoxylin and eosin staining; assay type: functional, organism-based
Rattus norvegicus [25] = test: Antiretinopathic activity in Sprague-Dawley rat streptozotocin-induced diabetic model assessed as reduction of retinal advanced glycated end products positive area at 50 mg/kg/day administered with drinking water after 6 months by immunohistochemistry analysis (reference value: 78.70 +/- 7.11%); assay type: functional; set-up: scale not given: the % may be the effect or the level left
Rattus norvegicus [26] = test: Toxicity in normal Sprague-Dawley rat assessed as effect on retinal pericyte cell count at 50 mg/kg/day administered with drinking water after 3 months by hematoxylin and eosin staining; assay type: organism-based; conditions: in vivo

For `N=C(N)NN` [PIMAGEDINE], the Activity (Rattus norvegicus [1]) was 12.71%, the Activity (Rattus norvegicus [2]) was “inactive” and the Activity (Rattus norvegicus [3]) was “Active”. For the same molecule, the Activity (Rattus norvegicus [4]) was “Non-toxic”, the Ratio (Rattus norvegicus [5]) was 3.06 and the Ratio (Rattus norvegicus [6]) was 3.46. The Ratio (Rattus norvegicus [7]) was 2.95, the Activity (Rattus norvegicus [8]) was 5.23 mmol/L and the Activity (Rattus norvegicus [9]) was 284.5 g. For the same molecule, the Activity (Rattus norvegicus [10]) was 1.33%, the Activity (Rattus norvegicus [11]) was “inactive” and the Activity (Rattus norvegicus [12]) was 536.5 g. The Activity (Rattus norvegicus [13]) was “inactive”, the Activity (Rattus norvegicus [14]) was “Non-toxic” and the Activity (Rattus norvegicus [15]) was 219.5 g. For the same molecule, the Activity (Rattus norvegicus [16]) was 553 g, the Activity (Rattus norvegicus [17]) was “inactive” and the Ratio (Rattus norvegicus [18]) was 3.71. The Activity (Rattus norvegicus [19]) was 21.74 mmol/L, the Activity (Rattus norvegicus [20]) was 21.89 mmol/L and the Activity (Rattus norvegicus [21]) was 3.27%. For the same molecule, the Activity (Rattus norvegicus [22]) was “Non-toxic”, the Activity (Rattus norvegicus [23]) was 5.07 mmol/L and the Activity (Rattus norvegicus [24]) was “inactive”. The Activity (Rattus norvegicus [25]) was 9.16% and the Activity (Rattus norvegicus [26]) was “Non-toxic”.
